Experimental data published in patent US10124008B2, “Use of inhibitors of acid sphingomyelinase to treat acquired and inherited retinal degenerations” (Wisconsin Alumni Research Foundation, priority 2014, dated 2018).
Entries after “also recorded” stand apart in the source; their conditions may differ.

Legend:
primary RPE cells = experiment: Live imaging of tandem fluorescent mRFP-GFP-LC3 (tfLC3), autophagic flux; format: cell-based, porcine; conditions: for autophagic flux / autophagosome-lysosome fusion (tfLC3 EGFP:mRFP): RPE with A2E, 3 h drug incubation (TO901317 1 μM 20 h); for autophagy after mTOR inhibition: polarized primary RPE, Torin 1 50 nM and Torin 2 1.5 μM, 2 h
Protocol: RPE cells were transfected with EGFP-LC3 or tandem fluorescent mRFP-GFP-LC3 (Addgene) using the AMAXA NUCLEOFECTOR II (Lonza). Approximately 1.5 million cells and 5 μg of plasmid DNA were used for each transfection. Cells were plated either on serum-coated glass-bottom dishes (Mattek) or […] filters at confluence.
Andor IQ2 software was used for image acquisition and Imaris x64 (Bitplane) for image analysis. […] Trafficking data was collected from three separate transfections for a total of at least 12-30 movies captured for treatment. During image acquisition care was taken to maintain the same laser power, exposure and electron-multiplying gain settings. […] After background subtraction (using the background subtraction algorithm and identical automatic threshold for all images) and smoothing (Gaussian algorithm with identical threshold settings for all images), Spots and Tracks algorithms were used to identify vesicles and follow them through time and cell-space to obtain total track length and track displacement.
We used tandem fluorescent mRFP-GFP-LC3 (tfLC3) to monitor autophagy in primary RPE cells in real time.
(§1) We performed two initial screens: first, we compared the ability of functional inhibitors (fluoxetine and amitriptyline) with that of the lone structural ASMase inhibitor zoledronic acid in decreasing acetylated tubulin. Here, polarized RPE monolayers with or without A2E were treated with one of the three inhibitors (10 μM, 3 h). Desipramine as a positive control. At the end of the incubation period, cells were fixed and stained for acetylated tubulin, imaged and the amount of acetylated tubulin in the cells was quantified. Second, we evaluated three additional drugs (sertraline, astemizole and fexofenadine) for their abilities to increase autophagy in the RPE. Cells with or without bisretinoids were transfected with mRFP-GFP-LC3, starved to induce autophagy, treated with drugs and imaged as in FIG. 9D.

[1] = tested on: LC3B-II and p62 in primary RPE monolayers; experiment: Immunoblotting of LC3B-II and p62 in polarized primary RPE monolayers; format: cell-based, porcine
Protocol: RPE harvested from mouse eyecups were sonicated in lysis buffer with protease inhibitors for 10 min. Primary RPE on TRANSWELL filters were harvested and lysed with NE-PER nuclear and cytoplasmic extraction reagents (Thermo Scientific #78833) according to the manufacturer's recommendation. Protein concentrations were measured with DC assay (BioRad). […] Proteins were then transferred onto nitrocellulose membrane using IBLOT dry transfer system (INVITROGEN), blocked in 5% milk in TBS-T for 1 hour before incubating in primary antibody overnight at 4° C. Membranes were probed with antibodies to LC3B (1:3000, Novus NB600-1384 for pig and 1:500, Sigma L7543 for mouse), p62/SQSTM1 (1:1000, ARP03-GP62-C) and actin (1:5000, Santa Cruz) followed by horseradish peroxidase-conjugated secondary antibodies. Immunoblots were visualized by ECL substrate (Thermo Scientific) and quantified using Image Studio (LI-COR). […] Other drugs used were the mTOR inhibitors Torin 1 and Torin 2 (50 nM and 1.5 μM, respectively, for 2 h, TOCRIS), the vacuolar ATPase inhibitor bafilomycin A1 (100 nM for 2 h, EMD Millipore), the LXRα agonist TO901317 (1 μM for 20 h, Cayman Chemicals), the HDAC6 inhibitor trichostatin A (TSA, 500 nM, 16 h, Sigma) and the ASMase inhibitor desipramine (10 μM for 3 h, Sigma). To depolymerize MTs, cells were treated with 33 μM nocodazole for 30 minutes, followed by cold-treatment (4° C.) for 30 minutes (Kreitzer et al., 2003). At the concentrations and exposure times used, none of these drugs caused alterations in RPE cell morphology or physiology (monitored by TER measurements, ZO-1 and organelle marker staining). […] Conversion of LC3B-I to its lipidated form (LC3B-II) is an indicator of autophagosome biogenesis and p62 levels are a measure of autophagic flux (Klionsky et al., 2012).

[2] = tested on: acetylated tubulin in polarized primary RPE; experiment: Immunofluorescence staining of acetylated and tyrosinated tubulin; format: cell-based, porcine; conditions: for acetylated tubulin in RPE with A2E: inhibitors 10 μM for 3 h, 48 h after A2E treatment
Protocol: ALEXAFLUOR secondary antibodies were used at 1:500 and rhodamine-phalloidin (Cytoskeleton, PHDR1) at 1:200. Filters were mounted under coverslips on glass slides under […] (Vector labs), sealed and visualized with Andor Revolution XD spinning disk confocal microscope using a 60×1.4 NA oil objective with identical exposures and gains for each antibody. Acetylated tubulin-labeled stable microtubules (≥5 μm in length) after nocodazole treatment were analyzed manually in the Surpass mode of Imaris (Bitplane).
as §1

[3] = Table 4, potential issues; cited from earlier work
[4] = tested on: EGFP-LC3-labeled autophagosomes in primary RPE; experiment: Live imaging of EGFP-LC3 autophagosome trafficking (spinning disk, Boolean gating); format: cell-based, porcine
Protocol: RPE cells were transfected with EGFP-LC3 or tandem fluorescent mRFP-GFP-LC3 (Addgene) using the AMAXA NUCLEOFECTOR II (Lonza). Approximately 1.5 million cells and 5 μg of plasmid DNA were used for each transfection. Cells were plated either on serum-coated glass-bottom dishes (Mattek) or TRANSWELL filters at confluence. Live imaging of autophagosome traffic and autophagic flux were performed on the Revolution XD spinning disk microscopy system (Andor) equipped with the Yokogawa CSU-X1 confocal spinning disk head, Nikon Eclipse Ti inverted microscope surrounded by an Okolab cage incubator, iXon x3 897 EM-CCD camera, Andor laser combiner with four solid state lasers at 405, 488, 561, and 640 nm and corresponding band-pass filter sets (Sutter), and ASI motorized stage with piezo-Z for rapid Z-stack acquisition. Andor IQ2 software was used for image acquisition and Imaris x64 (Bitplane) for image analysis. For live imaging, cells were serum starved for 2 h to induce autophagy and rapid z-stacks were acquired using the 100×1.49 NA Apo TIRF objective (Nikon) for ˜50 frames at 37° C. Trafficking data was collected from three separate transfections for a total of at least 12-30 movies captured for treatment. During image acquisition care was taken to maintain the same laser power, exposure and electron-multiplying gain settings. Trafficking analysis was carried out using the Spots and Tracks modules of the Imaris software (Liu et al., 2010). After background subtraction (using the background subtraction algorithm and identical automatic threshold for all images) and smoothing (Gaussian algorithm with identical threshold settings for all images), Spots and Tracks algorithms were used to identify vesicles and follow them through time and cell-space to obtain total track length and track displacement. […] Data were analyzed using either a two-tailed t-test or one-way ANOVA followed by Bonferroni or Dunnett's post-tests (GraphPad PRISM). Unless otherwise stated, data are presented as Mean±S.E.M. of ≥3 independent experiments, with 3 to 4 replicates per condition per experiment. […] Regions were defined by: minimum or maximum track length, minimum or maximum displacement and a slope of 0.5 (displacement divided by length). Tracks with slope <0.5 were taken as less straight (region 2) than those with slope of >0.5 (region 3). Tracks within each region are represented as a percent of total number of tracks in Tables 1 and 2. One-way ANOVA or t-tests were used to compare regions between treatment groups. […] To examine the efficiency of autophagosome transport, Spots and Tracks algorithms in Imaris were used to calculate how far each autophagosome traveled (track displacement length) as a function of the movement required to travel that distance (total track length) (Liu et al., 2010).

[5] = A2E-laden RPE after mTOR inhibition, TO901317 1 μM 20 h, desipramine 10 μM 3 h
[6] = percent of total EGFP-LC3 tracks, serum-starved RPE, TSA 500 nM

Q: Which “autophagic flux / autophagosome-lysosome fusion (tfLC3 EGFP:mRFP)” value (primary RPE cells) does the source give for `COc1ccc(CCN2CCC(Nc3nc4ccccc4n3Cc3ccc(F)cc3)CC2)cc1` [astemizole] here?
A: The value was “completely reversed the autophagic block induced by A2E”.

Q: For `O=S(=O)(c1ccccc1)N(CC(F)(F)F)c1ccc(C(O)(C(F)(F)F)C(F)(F)F)cc1` [TO901317], which “LC3B-II levels / autophagosome biogenesis (immunoblot)” value [1, 5] is on record?
A: The value was “increased autophagosome biogenesis”.

Q: And the “p62 levels / autophagic flux (immunoblot)” value [1, 5]?
A: The value was “significantly lesser than corresponding condition without TO901317”.

Q: What about the “autophagic flux / autophagosome-lysosome fusion (tfLC3 EGFP:mRFP)” value (primary RPE cells) of the same molecule?
A: The value was “restored autophagic flux in cells with A2E and decreased EGFP fluorescence back to control levels”.

Q: Which “autophagic flux / autophagosome-lysosome fusion (tfLC3 EGFP:mRFP)” value (primary RPE cells) does the source give for `CC(C)(C(=O)O)c1ccc(C(O)CCCN2CCC(C(O)(c3ccccc3)c3ccccc3)CC2)cc1` (stereo not shown) [Fexofenadine] here?
A: The value was “not as effective as astemizole, sertraline or desipramine in increasing autophagic flux”.

Q: For `CN[C@H]1CC[C@@H](c2ccc(Cl)c(Cl)c2)c2ccccc21` [sertraline], which “autophagic flux / autophagosome-lysosome fusion (tfLC3 EGFP:mRFP)” value (primary RPE cells) is on record?
A: The value was “completely reversed the autophagic block induced by A2E”.

Q: For `CCC(=O)N1CCN(c2ccc(-n3c(=O)ccc4cnc5ccc(-c6cnc7ccccc7c6)cc5c43)cc2C(F)(F)F)CC1` [Torin 1], which “autophagy after mTOR inhibition” value (primary RPE cells) is on record?
A: The value was “autophagy was upregulated”.

Q: For `CN(C)CCC=C1c2ccccc2CCc2ccccc21` [amitriptyline], which “acetylated tubulin in RPE with A2E” value [2] is on record?
A: The value was “as effective as desipramine in decreasing acetylated tubulin; also recorded: decreased acetylated tubulin levels in RPE with A2E back to control levels”.

Q: Which oral bioavailability [3] does the source give for `O=P(O)(O)C(O)(Cn1ccnc1)P(=O)(O)O` [zoledronic acid] here?
A: The oral bioavailability was under 4% oral.

Q: For `CO/C1=C\C(C)=C\[C@@H](C)[C@@H](O)[C@@H](C)C/C(C)=C/C=C/[C@H](OC)[C@@H]([C@@H](C)[C@@H](O)[C@H](C)[C@@]2(O)C[C@@H](O)[C@H](C)[C@@H](C(C)C)O2)OC1=O` [Bafilomycin A1], which “LC3B-II levels (immunoblot)” value ([1]; after mTOR inhibition, agent versus control RPE) is on record?
A: Its value is “increased LC3B-II after mTOR inhibition in control cells but not cells exposed to A2E”.

Q: With `CC(/C=C/C(=O)NO)=C\[C@@H](C)C(=O)c1ccc(N(C)C)cc1` [TSA, trichostatin A] as the molecule, how does the “autophagosome trafficking (long-range, directed movements)” value ([4]; agent alone versus control RPE) read?
A: Its value is “replicated the autophagosome trafficking defects seen in cells with A2E”.

Q: And the “Region 1 (R1) (D <2 μm, L <5 μm)” value [4, 6]?
A: Its value is 88.01%.

Q: What about the “Region 3 (R3) (L >5 μm, Slope >0.5 μm)” value [4, 6] of the same molecule?
A: Its value is 1.64%.

Q: With `CNCCC(Oc1ccc(C(F)(F)F)cc1)c1ccccc1` (stereo not shown) [fluoxetine] as the molecule, how does the “acetylated tubulin in RPE with A2E” value [2] read?
A: The value was “as effective as desipramine in decreasing acetylated tubulin; also recorded: decreased acetylated tubulin levels in RPE with A2E back to control levels”.

Q: For `Nc1ccc(-c2ccc3ncc4ccc(=O)n(-c5cccc(C(F)(F)F)c5)c4c3c2)cn1` [Torin 2], which “autophagy after mTOR inhibition” value (primary RPE cells) is on record?
A: The value was “autophagy was upregulated”.

Q: For `CCN(CC)CCO[C@H]1CC[C@@]2(C)C(=CC[C@@H]3[C@@H]2CC[C@]2(C)C(=O)CC[C@@H]32)C1` [U18666A], which acetylated tubulin ([2]; agent alone versus control RPE, U18666A 1 μM, 16 h) is on record?
A: Its acetylated tubulin is “Acetylated tubulin also increased”.
